Assay results published in patent US5393744A, “Glucosyl phosphotriesters of thymidine” (Institut Pasteur, priority 1988, dated 1995).

Legend:
human T lymphocytes = assay: Cytotoxicity of the products for human T lymphocytes; type: cell-based
Protocol: (§1) Each product was dissolved in DMSO at a concentration of 10^-3 M (stock solution), then in the culture medium immediately before use. The solution thus obtained was sterilized by filtration on a 0.22μ Millipore, then successive dilutions were made in the culture medium.
(§2) The cultures of human T lymphocytes are maintained in the medium RPMI 1640 containing 10% fetal calf serum (Seromeal), 1% of glummine (Gibco), 1% of antibiotics (PSN, Gibco), 10% of interleukin II (Biotest), 2 μg/ml of polybrene (Sigma) and a 1/2500 dilution of α-human semm-interferon. This medium is called complete medium.
The cytotoxicity of the products was studied on human T lymphocytes obtained from peripheral blood of a sero-negative donor. Prior to the treatment, these lymphocytes are stimulated by phytohemagglutinin p (pHAp) (Difco) for 3 days.
a) Study of the cytotoxicity of the products for the T cells.
10^6 lymphocytes stimulated by pHAp were treated for 10 days by increasing doses of the product (10^-5 M; 5×10^-6 M; 10^-6 M). The product was added at each cell passage carried out every 3 or 4 days. At each passage, the cells were counted after staining with trypan blue then resuspended at 10^6 cells per ml in the complete medium containing or not increasing doses of the product. This experiment was carried out in a plate with 24 wells (Munc).

HIV-1 virus [1] = assay: Infection of activated lymphocytes by the lysates of infected macrophages (co-culture, reverse transcriptase activity); type: cell-based
Protocol: The drugs 6651, AZT, 6714 and ddT were diluted in DMSO.
The virus HIV-1 utilized is derived from a culture supernatant of CEM-LAV 1 cells; these latter are maintained by the addition at each passage (every 3 or 4 days) of uninfected CEM cells. The titre of the virus in the clarified culture supernatant is higher than 10^6 cpm/ml in reverse transcriptase activity and 10^3 infectious units/ml on lymphocytes of sero-negative donors.
The lymphocytes were isolated from the peripheral blood of sero-negative donors on a Ficoll^R gradient (MSL, Eurobio). The lymphocytes thus obtained were stimulated with the phytohemaglutinin p(PHA-p) for 3 days before their utilization.
The lymphocytes are cultivated in RPMI 1640 medium, supplemented with 10% of fetal calf serum, 10% of interleukin 2, 2 μg/ml of polybrene, 1% of glutamine, 1% of antibiotics.
The macrophages were obtained from a deleucocytation pocket. The mononucleated cells were separated on a Ficoll^R gradient. The cells were adjusted to 50.10^6 cells/ml in the RPMI 1640 medium (MBA) containing 20% fetal calf serum (Flow), 10 mM Hepes (Sigma), 1% of PSN and 1% of glutamine (Gibco). After 1 h of incubation at 4° C. with gentle shaking, the macrophages agglutinate among themselves. The agglutinated macrophages are sedimented for 15 mn at 4° C. The supernatant containing an enrichment in lymphocytes was removed and the pellet enriched in macrophages was diluted to 5.10^6 cells/ml in the medium previously described. The cell suspension was then placed in Petri dishes of 60 mm diameter and placed at 37° C. for 1 h 30. The unattached cells are removed and the washed cell carpet was then detached with a scraper. The cells thus recovered were used directly for the study.
For this study, the production of HIV-1 virus by infected macrophages in the presence or absence of the drugs 6714 or ddT and 6651 or AZT were monitored either in continuous culture for at least 30 days or after lysis of the macrophages at day +14 and infection of lymphocytes by this lysate.
The quantity of cells placed in culture and the conditions of infection are identical with those previously described.
At day 14 after infection, the macrophages were lysed by two successive freezings to -20° C. and thawings at 37° C. The lysate recovered was then utilized as inoculum to infect 3.10^6 activated lymphocytes derived from a sero-negative donor. After 1 h of absorption, the lymphocytes were adjusted to 10^6 cells per ml and the drugs were added at the concentrations corresponding to those of the lysate.
The lymphocytes were subcultured every 3 or 4 days and an assay of the reverse transcriptase was carried out starting from the culture supernatant at each passage.
3) Measurement of the reverse transcriptase activity
The reverse transcriptase activity is assayed starting from 1 ml of culture supernatant concentrated 100 times by ultra-centrifugation for 5 mn at 95.000 rpm (Rotor TL 100^R Beckman).
The pellet is resuspended in 10 μl of NTE Triton^R ×100 0.1%.
After 1 h at 37° C., the acid-insoluble products are precipitated by 20% trichloroacetic acid, filtered onto 0.45μ Millipore^R and the B radioactivity is measured with the aid of a Kontron scintillation counter.

HIV-1 virus [2] = assay: Effect of the products on the infectious potency of the HIV-1 virus in human T lymphocytes (reverse transcriptase activity); type: cell-based, HIV-1 virus (LAV strain); conditions: treatment after viral absorption (FIG. 2)
Protocol: as §1
as §2, with “medium. […]” for “medium.”
Human lymphocytes stimulated beforehand by means of pHAp were infected by the HIV-1 virus (reverse transcriptase activity: 5000 cmp/10^6 cells). […] The viral production was monitored at each passage (and this for 13 days) by measuring the reverse transcriptase activity present in 1 ml of culture supernatant. […]
The production of the HIV-1 virus by human T cells treated or not by each product was regularly monitored by measuring the reverse transcriptase activity present in 1 ml of culture supernatant. […] After 1 hour of incubation of 37° C., the acid-insoluble products are precipitated by 20% trichloroacetic acid, filtered on 0.45μ Millipore, then the β radioactivity contained in these reaction products is measured with the aid of a Kontron scintillation counter.

SMILES	effect on the growth of T cells (human T lymphocytes; treatment of 10 days, at the doses used (FIG. 1))	viral production on the lymphocytes with the lysates of treated macrophages (HIV-1 virus [1]; 10^-5 M and 10^-6 M (FIG. 4c))	multiplication of the HIV-1 virus at the interior of the macrophage (HIV-1 virus [1]; 10^-5 M and 10^-6 M, same result as AZT (no multiplication))	multiplication of the HIV-1 virus in the macrophages (HIV-1 virus [1]; 10^-7 M)	viral production on the lymphocytes with the lysates of treated macrophages (HIV-1 virus [1]; 10^-7 M (FIG. 4c))	inhibition of the multiplication of the virus (HIV-1 virus [2]; 10^-5 M)	effect on cell multiplication (human T lymphocytes; same doses, 3 days)	viral production by activated lymphocytes with lysates of infected treated macrophages (general statement) (HIV-1 virus [1]; lysate at day 14)	viral production by activated lymphocytes, compared to untreated lysate (HIV-1 virus [1]; whatever the concentration tested (5.10^-5 M, 10^-5 M))	multiplication of the HIV-1 virus in the macrophages (HIV-1 virus [1]; whatever the concentration tested, 5.10^-6 M or 10^-5 M)	inhibition of the multiplication of the virus (HIV-1 virus [2]; dose proportional)
CCCCCCCCCCCCCCCCOP(=O)(OC[C@H]1OC(O)[C@H](O)[C@@H](O)[C@@H]1O)OC[C@H]1O[C@@H](n2cc(C)c(=O)[nH]c2=O)C[C@@H]1N=[N+]=[N-] (some centres unmarked) [compound 6651, 6-glucosyl hexadecyl 5'-(3'-azido) thymidinyl phosphate]	without significant effect on the growth of T cells	no viral production is obtained on the lymphocytes	this same result is obtained	there is multiplication of the HIV-1 virus in the macrophages, but the escape of the virus seems to be blocked	A low viral production is observed	total inhibition of the multiplication of the virus	–	–	–	–	–
Cc1cn([C@H]2CC[C@@H](COP(=O)(O)OC[C@H]3OC(O)[C@H](O)[C@@H](O)[C@@H]3O)O2)c(=O)[nH]c1=O (some centres unmarked) [compound 6714, 6-glucosyl 5'-(3'-deoxy)-thymidinyl phosphate]	–	–	–	–	–	–	no effect is observed on cell multiplication	make it possible to obtain a vital production by activated lymphocytes	comparable to the untreated lysate	there is multiplication of the HIV-1 virus in the macrophages, but the escape of the virus seems to be blocked	partial inhibition proportional to the dose of the product used
